Data from PMC9239247, “Listeria monocytogenes TcyKLMN Cystine/Cysteine Transporter Facilitates Glutathione Synthesis and Virulence Gene Expression” (mBio, 2022).

Target: T1, TcyK (Listeria monocytogenes, UniProt A0A0H3GMT4)
T1 construct: gene LMRG_01494; residues 38-286, without membrane-anchoring domain; N-terminal His-tag (pET-19b, cleavage not mentioned); codon-optimised, E. coli BL21-Gold(DE3)
Assay: isothermal titration calorimetry
Assay type: binding

T1 sequence (A0A0H3GMT4 entry or part of it): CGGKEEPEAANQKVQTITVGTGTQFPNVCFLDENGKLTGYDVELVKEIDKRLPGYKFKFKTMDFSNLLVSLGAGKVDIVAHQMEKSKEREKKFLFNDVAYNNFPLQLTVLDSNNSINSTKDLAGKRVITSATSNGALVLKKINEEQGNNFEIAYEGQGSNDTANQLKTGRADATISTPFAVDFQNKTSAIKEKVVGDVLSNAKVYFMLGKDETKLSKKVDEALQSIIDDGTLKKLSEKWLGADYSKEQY

N[C@@H](CS)C(=O)O [Cys, L-cysteine]
Kd: ~66.7 µM

N[C@@H](CSSC[C@H](N)C(=O)O)C(=O)O [CSSC, cystine]
Kd: ~13 µM
